Assay results: PMC10408569, “Recruitment of hexahydroquinoline as anticancer scaffold targeting inhibition of wild and mutants EGFR (EGFR^WT, EGFR^T790M, and EGFR^L858R)” (Journal of Enzyme Inhibition and Medicinal Chemistry, 2023)

How the values were obtained:
[1] = tested on: HL-60(TB); experiment: NCI-60 anticancer screening (SRB); format: cell-based; conditions: Homo sapiens, leukemia, one dose 10 μM, read-out: Growth Inhibition Percentage (GI %)
[2] = tested on: K-562; experiment: NCI-60 anticancer screening (SRB); format: cell-based; conditions: Homo sapiens, K562; K-562, leukemia; one dose 10 μM; read-out: Growth Inhibition Percentage (GI %)
[3] = tested on: MOLT-4; experiment: NCI-60 anticancer screening (SRB); format: cell-based; conditions: Homo sapiens; MOLT-4, leukemia; one dose 10 μM; read-out: Growth Inhibition Percentage (GI %)
[4] = tested on: SR; experiment: NCI-60 anticancer screening (SRB); format: cell-based; conditions: Homo sapiens, leukemia, one dose 10 μM, read-out: Growth Inhibition Percentage (GI %)
[5] = tested on: A549/ATCC; experiment: NCI-60 anticancer screening (SRB); format: cell-based; conditions: Homo sapiens; A549/ATCC, NSC lung cancer; one dose 10 μM; read-out: Growth Inhibition Percentage (GI %)
[6] = tested on: EKVX; experiment: NCI-60 anticancer screening (SRB); format: cell-based; conditions: Homo sapiens, NSC lung cancer, one dose 10 μM, read-out: Growth Inhibition Percentage (GI %)
[7] = tested on: HOP-62; experiment: NCI-60 anticancer screening (SRB); format: cell-based; conditions: Homo sapiens; HOP-62, NSC lung cancer; one dose 10 μM; read-out: Growth Inhibition Percentage (GI %)
[8] = tested on: HOP-92; experiment: NCI-60 anticancer screening (SRB); format: cell-based; conditions: Homo sapiens; HOP-92, NSC lung cancer; one dose 10 μM; read-out: Growth Inhibition Percentage (GI %)
[9] = tested on: NCI-H460; experiment: NCI-60 anticancer screening (SRB); format: cell-based; conditions: Homo sapiens; NCI-H460, NSC lung cancer; one dose 10 μM; read-out: Growth Inhibition Percentage (GI %)
[10] = tested on: HCT-15; experiment: NCI-60 anticancer screening (SRB); format: cell-based; conditions: Homo sapiens; HCT-15, colon cancer; one dose 10 μM; read-out: Growth Inhibition Percentage (GI %)
[11] = tested on: HT29; experiment: NCI-60 anticancer screening (SRB); format: cell-based; conditions: Homo sapiens, HT-29; HT29, colon cancer; one dose 10 μM; read-out: Growth Inhibition Percentage (GI %)
[12] = tested on: KM 12; experiment: NCI-60 anticancer screening (SRB); format: cell-based; conditions: Homo sapiens, KM12; KM 12, colon cancer; one dose 10 μM; read-out: Growth Inhibition Percentage (GI %)
[13] = tested on: SW-620; experiment: NCI-60 anticancer screening (SRB); format: cell-based; conditions: Homo sapiens; SW-620, colon cancer; one dose 10 μM; read-out: Growth Inhibition Percentage (GI %)
[14] = tested on: SNB-75; experiment: NCI-60 anticancer screening (SRB); format: cell-based; conditions: Homo sapiens; SNB-75, CNS cancer; one dose 10 μM; read-out: Growth Inhibition Percentage (GI %)
[15] = tested on: MALME-3M; experiment: NCI-60 anticancer screening (SRB); format: cell-based; conditions: Homo sapiens, melanoma, one dose 10 μM, read-out: Growth Inhibition Percentage (GI %)
[16] = tested on: M14; experiment: NCI-60 anticancer screening (SRB); format: cell-based; conditions: Homo sapiens; M14, melanoma; one dose 10 μM; read-out: Growth Inhibition Percentage (GI %)
[17] = tested on: MDA-MB-435; experiment: NCI-60 anticancer screening (SRB); format: cell-based; conditions: Homo sapiens; MDA-MB-435, melanoma; one dose 10 μM; read-out: Growth Inhibition Percentage (GI %)
[18] = tested on: SK-MEL-28; experiment: NCI-60 anticancer screening (SRB); format: cell-based; conditions: Homo sapiens; SK-MEL-28, melanoma; one dose 10 μM; read-out: Growth Inhibition Percentage (GI %)
[19] = tested on: SK-MEL-5; experiment: NCI-60 anticancer screening (SRB); format: cell-based; conditions: Homo sapiens; SK-MEL-5, melanoma; one dose 10 μM; read-out: Growth Inhibition Percentage (GI %)
[20] = tested on: UACC-257; experiment: NCI-60 anticancer screening (SRB); format: cell-based; conditions: Homo sapiens; UACC-257, melanoma; one dose 10 μM; read-out: Growth Inhibition Percentage (GI %)
[21] = tested on: UACC-62; experiment: NCI-60 anticancer screening (SRB); format: cell-based; conditions: Homo sapiens; UACC-62, melanoma; one dose 10 μM; read-out: Growth Inhibition Percentage (GI %)
[22] = tested on: IGROV1; experiment: NCI-60 anticancer screening (SRB); format: cell-based; conditions: Homo sapiens, IGROV-1; IGROV1, ovarian cancer; one dose 10 μM; read-out: Growth Inhibition Percentage (GI %)
[23] = tested on: OVCAR-4; experiment: NCI-60 anticancer screening (SRB); format: cell-based; conditions: Homo sapiens; OVCAR-4, ovarian cancer; one dose 10 μM; read-out: Growth Inhibition Percentage (GI %)
[24] = tested on: OVCAR-8; experiment: NCI-60 anticancer screening (SRB); format: cell-based; conditions: Homo sapiens; OVCAR-8, ovarian cancer; one dose 10 μM; read-out: Growth Inhibition Percentage (GI %)
[25] = tested on: SK-OV-3; experiment: NCI-60 anticancer screening (SRB); format: cell-based; conditions: Homo sapiens; SK-OV-3, ovarian cancer; one dose 10 μM; read-out: Growth Inhibition Percentage (GI %)
[26] = tested on: 786-0; experiment: NCI-60 anticancer screening (SRB); format: cell-based; conditions: Homo sapiens; 786-0, renal cancer; one dose 10 μM; read-out: Growth Inhibition Percentage (GI %)
[27] = tested on: A498; experiment: NCI-60 anticancer screening (SRB); format: cell-based; conditions: Homo sapiens; A498, renal cancer; one dose 10 μM; read-out: Growth Inhibition Percentage (GI %)
[28] = tested on: CAKI-1; experiment: NCI-60 anticancer screening (SRB); format: cell-based; conditions: Homo sapiens; CAKI-1, renal cancer; one dose 10 μM; read-out: Growth Inhibition Percentage (GI %)
[29] = tested on: PC-3; experiment: NCI-60 anticancer screening (SRB); format: cell-based; conditions: Homo sapiens; PC-3, prostate cancer; one dose 10 μM; read-out: Growth Inhibition Percentage (GI %)
[30] = tested on: MDA-MB-231; experiment: NCI-60 anticancer screening (SRB); format: cell-based; conditions: Homo sapiens; MDA-MB-231, breast cancer; one dose 10 μM; read-out: Growth Inhibition Percentage (GI %)
[31] = tested on: T-47D; experiment: NCI-60 anticancer screening (SRB); format: cell-based; conditions: Homo sapiens, T47D, breast cancer, one dose 10 μM, read-out: Growth Inhibition Percentage (GI %)
[32] = tested on: NCI 60 cancer cell lines; experiment: NCI-60 anticancer screening (SRB), whole panel; format: cell-based, human; conditions: mean across the NCI-60 panel; one dose 10 μM

SMILES	inhibition at 10 µM [1] [%]	inhibition at 10 µM [2] [%]	inhibition at 10 µM [3] [%]	inhibition at 10 µM [4] [%]	inhibition at 10 µM [5] [%]	inhibition at 10 µM [6] [%]	inhibition at 10 µM [7] [%]	inhibition at 10 µM [8] [%]	inhibition at 10 µM [9] [%]	inhibition at 10 µM [10] [%]	inhibition at 10 µM [11] [%]	inhibition at 10 µM [12] [%]	inhibition at 10 µM [13] [%]	inhibition at 10 µM [14] [%]	inhibition at 10 µM [15] [%]	inhibition at 10 µM [16] [%]	inhibition at 10 µM [17] [%]	inhibition at 10 µM [18] [%]	inhibition at 10 µM [19] [%]	inhibition at 10 µM [20] [%]	further results
CCOC(=O)C1=C(N)N(c2ccc(C)cc2)C2=C(C(=O)CC(C)(C)C2)C1c1ccccc1Br (racemic) [6e, (±)-Ethyl 2-amino-4–(2-bromophenyl)-7,7-dimethyl-1–(4-methylphenyl)-5-oxo-1,4,5,6,7,8-hexahydroquinoline-3-carboxylate]	111	50	71	34	19	< 10	< 10	28	46	42	37	16	54	13	< 10	17	17	< 10	23	16	inhibition at 10 µM [21]: 28%; inhibition at 10 µM [22]: < 10%; inhibition at 10 µM [23]: 17%; inhibition at 10 µM [24]: < 10%; inhibition at 10 µM [25]: < 10%; inhibition at 10 µM [26]: 17%; inhibition at 10 µM [27]: < 10%; inhibition at 10 µM [28]: 30%; inhibition at 10 µM [29]: 68%; inhibition at 10 µM [30]: < 10%; inhibition at 10 µM [31]: 30%; GI % mean [32]: 22%; melting point: 236 to 238 °C
CCOC(=O)C1=C(N)N(c2ccc(Cl)cc2)C2=C(C(=O)CC(C)(C)C2)C1c1ccccc1Br (racemic) [6f, (±)-Ethyl 2-amino-4–(2-bromophenyl)-1–(4-chlorophenyl)-7,7-dimethyl-5-oxo-1,4,5,6,7,8-hexahydroquinoline-3-carboxylate]	68	< 10	< 10	< 10	31	25	< 10	13	43	53	44	40	38	16	18	24	< 10	< 10	79	42	inhibition at 10 µM [21]: 36%; inhibition at 10 µM [22]: < 10%; inhibition at 10 µM [23]: 25%; inhibition at 10 µM [24]: 14%; inhibition at 10 µM [25]: < 10%; inhibition at 10 µM [26]: 12%; inhibition at 10 µM [27]: < 10%; inhibition at 10 µM [28]: 32%; inhibition at 10 µM [29]: 71%; inhibition at 10 µM [30]: 15%; inhibition at 10 µM [31]: 49%; GI % mean [32]: 24%; melting point: 210 to 212 °C
CCOC(=O)C1=C(N)N(c2ccc(Cl)cc2)C2=C(C(=O)CC(C)(C)C2)C1c1ccccc1OC (racemic) [6i, (±)-Ethyl 2-amino-1–(4-chlorophenyl)-4–(2-methoxyphenyl)-7,7-dimethyl-5-oxo-1,4,5,6,7,8-hexahydroquinoline-3-carboxylate]	69	66	89	64	52	44	< 10	12	51	59	44	54	23	18	40	49	51	36	29	44	inhibition at 10 µM [21]: 44%; inhibition at 10 µM [22]: 27%; inhibition at 10 µM [23]: 58%; inhibition at 10 µM [24]: 12%; inhibition at 10 µM [25]: < 10%; inhibition at 10 µM [26]: < 10%; inhibition at 10 µM [27]: < 10%; inhibition at 10 µM [28]: 12%; inhibition at 10 µM [29]: 68%; inhibition at 10 µM [30]: 31%; inhibition at 10 µM [31]: 40%; GI % mean [32]: 36%; melting point: 228 to 230 °C
CCOC(=O)C1=C(N)N(c2ccc(Cl)cc2)C2=C(C(=O)CC(C)(C)C2)C1c1ccc(F)cc1 (racemic) [8b, (±)-Ethyl 2-amino-1–(4-chlorophenyl)-4–(4-fluoroyphenyl)-7,7-dimethyl-5-oxo-1,4,5,6,7,8-hexahydroquinoline-3-carboxylate]	32	< 10	< 10	< 10	12	25	< 10	21	< 10	34	39	< 10	< 10	< 10	< 10	14	11	< 10	29	11	inhibition at 10 µM [21]: 40%; inhibition at 10 µM [22]: < 10%; inhibition at 10 µM [23]: 16%; inhibition at 10 µM [24]: 13%; inhibition at 10 µM [25]: < 10%; inhibition at 10 µM [26]: 20%; inhibition at 10 µM [27]: < 10%; inhibition at 10 µM [28]: 26%; inhibition at 10 µM [29]: 35%; inhibition at 10 µM [30]: 19%; inhibition at 10 µM [31]: 27%; GI % mean [32]: 14%; melting point: 256 to 258 °C
